Reference: ChEMBL document CHEMBL1201861, “Genomics of Drug Sensitity in Cancer screening data, Wellcome Trust Sanger Institute”

Tests used:
Assay in all cases: cells
Type in all cases: functional, cell-based, Homo sapiens
MKN-7 = conditions: Homo sapiens, MKN-7;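 note: growth inhibition of MKN-7 cells, read out with a cell viability assay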
Description: SANGER: Inhibition of human MKN7 cell growth in a cell viability assay.

KP-N-YN = conditions: Homo sapiens, KP-N-YN;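 note: growth inhibition of KP-N-YN cells, read out with a cell viability assay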
Description: SANGER: Inhibition of human KP-N-YN cell growth in a cell viability assay.

ESS-1 = conditions: Homo sapiens, ESS-1;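 note: growth inhibition of human ESS-1 cells, read out by a cell viability assay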
Description: SANGER: Inhibition of human ESS-1 cell growth in a cell viability assay.

Huh-7 = conditions: Homo sapiens, Huh-7;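 note: HuH-7 cell growth inhibition, read out with a cell viability assay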
Description: SANGER: Inhibition of human HuH-7 cell growth in a cell viability assay.

MKN-45 = conditions: Homo sapiens, MKN-45;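 note: growth inhibition of human MKN-45 cells, measured with a cell viability assay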
Description: SANGER: Inhibition of human MKN45 cell growth in a cell viability assay.

SAOS-2 = conditions: Homo sapiens, SAOS-2;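 note: growth inhibition of human Saos-2 cells determined by a cell viability assay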
Description: SANGER: Inhibition of human Saos-2 cell growth in a cell viability assay.

MEL-HO = conditions: Homo sapiens, MEL-HO
Description: SANGER: Inhibition of human MEL-HO cell growth in a cell viability assay.

NCI-H23 = conditions: Homo sapiens, NCI-H23
Description: SANGER: Inhibition of human NCI-H23 cell growth in a cell viability assay.

5637 = conditions: Homo sapiens
Description: SANGER: Inhibition of human 5637 cell growth in a cell viability assay.

SW1990 = conditions: Homo sapiens, SW1990;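 note: cell growth inhibition determined with a viability assay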
Description: SANGER: Inhibition of human SW1990 cell growth in a cell viability assay.

TGBC1TKB = conditions: Homo sapiens, TGBC1TKB;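 note: growth inhibition of TGBC1TKB cells, read out by a cell viability assay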
Description: SANGER: Inhibition of human TGBC1TKB cell growth in a cell viability assay.

LB831-BLC = conditions: Homo sapiens, LB831-BLC;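 note: growth inhibition of LB831-BLC cells, read out with a cell viability assay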
Description: SANGER: Inhibition of human LB831-BLC cell growth in a cell viability assay.

OAW-28 = conditions: Homo sapiens, OAW-28;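 note: growth inhibition of OAW-28 cells, read out with a cell viability assay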
Description: SANGER: Inhibition of human OAW-28 cell growth in a cell viability assay.

LAN-6 = conditions: Homo sapiens, LAN-6;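 note: growth inhibition of LAN-6 cells, determined with a cell viability assay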
Description: SANGER: Inhibition of human LAN-6 cell growth in a cell viability assay.

J82 = conditions: Homo sapiens, J82;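 note: growth inhibition of J82 cells, read out with a cell viability assay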
Description: SANGER: Inhibition of human J82 cell growth in a cell viability assay.

HuO9 = conditions: Homo sapiens, HuO9;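 note: growth inhibition of HuO9 cells, read out with a cell viability assay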
Description: SANGER: Inhibition of human HuO9 cell growth in a cell viability assay.

SH-4 = conditions: Homo sapiens, SH-4;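 note: growth inhibition of SH-4 cells, read out with a cell viability assay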
Description: SANGER: Inhibition of human SH-4 cell growth in a cell viability assay.

NCI-H1155 = conditions: Homo sapiens, NCI-H1155;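 note: cell growth inhibition measured by a viability assay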
Description: SANGER: Inhibition of human NCI-H1155 cell growth in a cell viability assay.

LK-2 = conditions: Homo sapiens, LK-2;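 note: growth inhibition of LK-2 cells, read out with a viability assay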
Description: SANGER: Inhibition of human LK-2 cell growth in a cell viability assay.

CCRF-CEM = conditions: Homo sapiens, CCRF-CEM;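 note: inhibition of CCRF-CEM cell growth, measured by a cell viability assay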
Description: SANGER: Inhibition of human CCRF-CEM cell growth in a cell viability assay.

BB30-HNC = conditions: Homo sapiens, BB30-HNC;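 note: growth inhibition of the cultured cell line, read out by a cell viability assay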
Description: SANGER: Inhibition of human BB30-HNC cell growth in a cell viability assay.

DK-MG = conditions: Homo sapiens, DK-MG;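 note: growth inhibition of DK-MG cells, read out with a cell viability assay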
Description: SANGER: Inhibition of human DK-MG cell growth in a cell viability assay.

SW837 = conditions: Homo sapiens, SW837;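 note: growth inhibition of SW837 cells, determined with a cell viability assay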
Description: SANGER: Inhibition of human SW837 cell growth in a cell viability assay.

MKN-1 = conditions: Homo sapiens, MKN-1;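 note: growth inhibition of human MKN1 cells, read out by a cell viability measurement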
Description: SANGER: Inhibition of human MKN1 cell growth in a cell viability assay.

D-336MG = conditions: Homo sapiens, D-336MG
Description: SANGER: Inhibition of human D-336MG cell growth in a cell viability assay.

NCI-H2029 = conditions: Homo sapiens, NCI-H2029;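 note: Read-out is a viability assay on the cultured cells, and IC50 is the concentration that suppresses cell growth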
Description: SANGER: Inhibition of human NCI-H2029 cell growth in a cell viability assay.

SNU-5 = conditions: Homo sapiens, SNU-5;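 note: cell viability readout used to measure growth inhibition in human NCI-SNU-5 cells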
Description: SANGER: Inhibition of human NCI-SNU-5 cell growth in a cell viability assay.

SNU-C2B = conditions: Homo sapiens, SNU-C2B;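 note: cell viability readout used to measure compound-driven suppression of SNU-C2B cell proliferation, IC50 marking half-maximal growth inhibition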
Description: SANGER: Inhibition of human SNU-C2B cell growth in a cell viability assay.

NB13 = conditions: Homo sapiens, NB13;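 note: cell viability readout measuring growth inhibition of human NB13 cells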
Description: SANGER: Inhibition of human NB13 cell growth in a cell viability assay.

PANC-08-13 = conditions: Homo sapiens, PANC-08-13;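 note: cell growth inhibition, measured with a cell viability assay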
Description: SANGER: Inhibition of human PANC-08-13 cell growth in a cell viability assay.

COLO-320-HSR = conditions: Homo sapiens, COLO-320-HSR;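 note: growth inhibition of COLO-320-HSR cells, determined with a cell viability assay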
Description: SANGER: Inhibition of human COLO-320-HSR cell growth in a cell viability assay.

GCIY = conditions: Homo sapiens, GCIY;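 note: growth inhibition of the human GCIY cell line, read out by a cell viability assay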
Description: SANGER: Inhibition of human GCIY cell growth in a cell viability assay.

LXF-289 cell line = conditions: Homo sapiens, LXF-289
Description: SANGER: Inhibition of human LXF-289 cell growth in a cell viability assay.

EFM-19 = conditions: Homo sapiens, EFM-19;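 note: growth inhibition of human EFM-19 cells, measured in a cell viability assay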
Description: SANGER: Inhibition of human EFM-19 cell growth in a cell viability assay.

LB996-RCC = conditions: Homo sapiens, LB996-RCC
Description: SANGER: Inhibition of human LB996-RCC cell growth in a cell viability assay.

NCI-H2347 = conditions: Homo sapiens, NCI-H2347;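 note: growth inhibition of the cell line, read out with a cell viability assay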
Description: SANGER: Inhibition of human NCI-H2347 cell growth in a cell viability assay.

T98G = conditions: Homo sapiens, T98G;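 note: growth inhibition of T98G cells, read out by a cell viability assay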
Description: SANGER: Inhibition of human T98G cell growth in a cell viability assay.

769-P = conditions: Homo sapiens, 769-P
Description: SANGER: Inhibition of human 769-P cell growth in a cell viability assay.

NEC8 = conditions: Homo sapiens, NEC8;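 note: growth inhibition of human NEC8 cells, read out by a cell viability assay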
Description: SANGER: Inhibition of human NEC8 cell growth in a cell viability assay.

EFO-21 = conditions: Homo sapiens, EFO-21;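 note: growth inhibition of EFO-21 cells measured with a viability assay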
Description: SANGER: Inhibition of human EFO-21 cell growth in a cell viability assay.

| Structure (SMILES) | IC50 (MKN-7) [µM] | IC50 (KP-N-YN) [µM] | IC50 (ESS-1) [µM] | IC50 (Huh-7) [µM] | IC50 (SAOS-2) [µM] | IC50 (MEL-HO) [µM] | IC50 (NCI-H23) [µM] | IC50 5637 [µM] | IC50 (SW1990) [µM] | IC50 (TGBC1TKB) [µM] | IC50 (LB831-BLC) [µM] | IC50 (OAW-28) [µM] | IC50 (LAN-6) [µM] | IC50 (HuO9) [µM] | IC50 (SH-4) [µM] | IC50 (NCI-H1155) [µM] | IC50 (LK-2) [µM] | IC50 (CCRF-CEM) [µM] | IC50 (BB30-HNC) [µM] | IC50 (DK-MG) [µM] | further results |
| --- | --- | --- | --- | --- | --- | --- | --- | --- | --- | --- | --- | --- | --- | --- | --- | --- | --- | --- | --- | --- | --- |
| COc1cc2c(Nc3ccc(NC(=O)c4ccccc4)cc3)ncnc2cc1OCCCN1CCOCC1 | > 4 | > 4 | > 4 | > 4 | > 4 | > 4 | > 4 | > 4 | > 4 | > 4 | > 4 | > 4 | > 4 | > 4 | > 4 | 3.04 | 1.65 | 1.87 | 2.54 | > 4 | IC50 (MKN-45): > 4 µM; IC50 (J82): > 4 µM; IC50 (SW837): > 4 µM; IC50 (MKN-1): > 4 µM; IC50 (D-336MG): > 4 µM; IC50 (NCI-H2029): > 4 µM; IC50 (SNU-5): > 4 µM; IC50 (SNU-C2B): > 4 µM; IC50 (NB13): > 4 µM; IC50 (PANC-08-13): > 4 µM; IC50 (COLO-320-HSR): > 4 µM; IC50 (GCIY): > 4 µM; IC50 (LXF-289 cell line): 2.54 µM; IC50 (EFM-19): > 4 µM; IC50 (LB996-RCC): > 4 µM; IC50 (NCI-H2347): > 4 µM; IC50 (T98G): 3.95 µM; IC50 (769-P): > 4 µM; IC50 (NEC8): > 4 µM; IC50 (EFO-21): 3.11 µM |
| CC(C)CCN1c2nc(Nc3cc(F)c(O)c(F)c3)ncc2N(C)C(=O)C1C (stereo not given) | > 5 | > 5 | > 5 | > 5 | > 5 | > 5 | > 5 | 4.61 | > 5 | > 5 | 3.54 | > 5 | > 5 | 2.37 | > 5 | > 5 | > 5 | > 5 | > 5 | > 5 | IC50 (MKN-45): > 5 µM; IC50 (J82): > 5 µM; IC50 (SW837): > 5 µM; IC50 (MKN-1): 3.21 µM; IC50 (D-336MG): > 5 µM; IC50 (NCI-H2029): 1.97 µM; IC50 (SNU-5): > 5 µM; IC50 (SNU-C2B): 3.39 µM; IC50 (NB13): > 5 µM; IC50 (PANC-08-13): > 5 µM; IC50 (COLO-320-HSR): > 5 µM; IC50 (GCIY): 4.71 µM; IC50 (LXF-289 cell line): 4.4 µM; IC50 (EFM-19): > 5 µM; IC50 (LB996-RCC): > 5 µM; IC50 (NCI-H2347): > 5 µM; IC50 (T98G): 3.28 µM; IC50 (769-P): > 5 µM; IC50 (NEC8): 1.7 µM; IC50 (EFO-21): > 5 µM |
| CC1(C)CNc2cc(NC(=O)c3cccnc3NCc3ccncc3)ccc21 [MOTESANIB] | > 2 | > 2 | > 2 | > 2 | > 2 | > 2 | > 2 | > 2 | > 2 | > 2 | > 2 | > 2 | > 2 | > 2 | > 2 | > 2 | > 2 | > 2 | > 2 | > 2 | IC50 (MKN-45): > 2 µM; IC50 (J82): > 2 µM; IC50 (SW837): > 2 µM; IC50 (MKN-1): > 2 µM; IC50 (D-336MG): > 2 µM; IC50 (NCI-H2029): > 2 µM; IC50 (SNU-5): > 2 µM; IC50 (SNU-C2B): > 2 µM; IC50 (NB13): > 2 µM; IC50 (PANC-08-13): > 2 µM; IC50 (COLO-320-HSR): > 2 µM; IC50 (GCIY): > 2 µM; IC50 (LXF-289 cell line): > 2 µM; IC50 (EFM-19): > 2 µM; IC50 (LB996-RCC): > 2 µM; IC50 (NCI-H2347): > 2 µM; IC50 (T98G): > 2 µM; IC50 (769-P): > 2 µM; IC50 (NEC8): > 2 µM; IC50 (EFO-21): > 2 µM |
| Cn1cnc2c(F)c(Nc3ccc(Br)cc3Cl)c(C(=O)NOCCO)cc21 [SELUMETINIB] | > 4 | > 4 | > 4 | > 4 | > 4 | 0.139 | > 4 | > 4 | > 4 | > 4 | > 4 | 1.74 | 2.83 | > 4 | 0.166 | > 4 | > 4 | > 4 | 2.71 | > 4 | IC50 (NCI-H2029): > 4 µM; IC50 (SNU-5): 3.61 µM; IC50 (SNU-C2B): > 4 µM; IC50 (NB13): > 4 µM; IC50 (PANC-08-13): > 4 µM; IC50 (COLO-320-HSR): > 4 µM; IC50 (GCIY): > 4 µM; IC50 (LXF-289 cell line): > 4 µM; IC50 (EFM-19): > 4 µM; IC50 (LB996-RCC): 3.95 µM; IC50 (NCI-H2347): > 4 µM; IC50 (T98G): > 4 µM; IC50 (769-P): 3.74 µM; IC50 (NEC8): > 4 µM; IC50 (EFO-21): 3.19 µM |
